Results reported in US20250320190A1, “Novel Inhibitors of Leucine Carboxyl Methyltransferase-1 (LCMT-1) and Methods of Use Thereof” (Temple University-Of The Commonwealth System of Higher …, priority 2024, published 2025).

Columns and labels:
MDA-MB-231 cells [1] = assay: Cytotoxicity assay (calcein-AM); assay type: cell-based, human; conditions: MDA-MB-231, 48 hours
Method: HS-5, HEK-293, MCF7, MDA-MB-231 and Rosi cells were seeded in 96-well optical bottom tissue culture plates (Corning, New York) at a density of 2.5×10^3 cells/well. After 24 hours, the media were changed to media containing LB-100 (Cayman Chemical Company, Ann Arbor, Michigan) or Compound 2 at various concentrations (50-0.31 μM). Control cells were given fresh media. After 48 hours the media were aspirated and plates were washed with warmed Dulbecco's phosphate-buffered saline (DPBS) with calcium and magnesium (Sigma-Aldrich, catalog #D1283). Cells were stained with 3 μM calcein-AM (AAT Bioquest, Pleasanton, California, catalog #22002) in DPBS for 30 minutes in the dark at 37° C. Plates were immediately read with a Biotek fluorescent plate reader (excitation 485 nm, emission 520 nm). The cytotoxicity assays were performed at least three times, each time with six replicates per condition.

MCF7 cells [2] = assay: Western blots; assay type: cell-based, human; conditions: 20 μM
Method: (§1) MCF7, MDA-MB-231 and Rosi cells were treated with Compound 1 or Compound 2 at a concentration of 20 μM in complete medium, and lysates were harvested after 2, 4, 6, 8 and 12 hours in radioimmunoprecipitation assay buffer containing protease inhibitors (Boster Bio, Pleasanton, California, catalog #AR1182-1) and phosphatase inhibitors (Santa Cruz Biotechnology catalog #sc-45044 and #sc-45045). Protein concentrations were measured with a bicinchoninic acid assay (G-Biosciences, Saint Louis, Missouri). Fifty micrograms of each lysate were used for bis-tris polyacrylamide gel electrophoresis. Resolved lysates were transferred to nitrocellulose membranes. Membranes were blocked with TBS with 5% bovine serum albumin before incubation with primary antibodies.
(§2) Antibodies obtained from Cell Signaling Technology (Danvers Massachusetts) were, anti-PP2Ac (catalog #2038, 1:1,000 dilution), anti-phospho-adenosine monophosphate-activated protein kinase (pAMPKα2 threonine 172, catalog #2535, 1:1,000 dilution). Antibodies obtained from Proteintech (Rosemont, Illinois) include anti-phospho-receptor-interacting serine/threonine protein kinase-1 antibodies (pRIPK1 serine 161 (catalog #66854-1-Ig, 1:1,000 dilution) and pRIPK1 serine 166 (catalog #28252-1-AP, 1:10,000 dilution), anti-mixed lineage kinase domain like pseudokinase (MLKL, catalog #66675-1-Ig, 1:5,000 dilution), anti-AMPKα2, anti-phospho-acetyl-coenzyme A carboxylase (pACC1 serine 79, catalog #29119-1-AP, 1:1,000 dilution), anti-ACC1 (catalog #21923-1-AP, 1:2,000 dilution) and anti-β-actin (catalog #66009-1-Ig, 1:50,000 dilution). The anti-RIPKI antibody was obtained from AbClonal (Woburn, Massachusetts, catalog #A7414, 1:750 dilution). The anti-phospho-MLKL antibody was obtained from R&D Systems (Minneapolis, Minnesota, 1:1,000 dilution). The LCMT-1 antibody was obtained from Origene (Rockville, Maryland, catalog #TA503127S, 1:2,000 dilution). Appropriate IR-dye secondary antibodies were used (Alexa Fluor® 790-conjugated anti-mouse (catalog #115-655-146, 1:50,000 dilution), Alexa Fluor® 680-conjugated anti-mouse (catalog #115-625-146, 1:50,000 dilution), and Alexa Fluor® 680-conjugated anti-rabbit (catalog #115-625-144, 1:50,000 dilution) were obtained from Jackson ImmunoResearch Laboratories (West Grove, Pennsylvania). Band densities were normalized to β-actin, the endogenous control. At least five replicates were used for statistical analyses.

Rosi cells [3] = assay: Western blots; assay type: cell-based, human; conditions: 20 μM
Method: as §1, §2

MDA-MB-231 cells [4] = assay: Western blots; assay type: cell-based, human; conditions: 20 μM
Method: as §1, §2

501-MEL cells = assay: Cytotoxicity assay (CellTiter 96 AQeous); assay type: cell-based; conditions: Homo sapiens, 48 hours
Method: (§3) MCF7, MDA-MB-231, 501-MEL, Rosi, A549, SCC-15, SCC-25, UM-SCC-12, UM-SCC-14a, UM-SCC-49 and UM-SCC69 cells were seeded in 96-well tissue culture plates (Corning, New York) at a density of 2.5×10^3 cells/well. After 24 hours, the media were changed to media with LCMT-li (ChemSpace, Monmouth Junction, New Jersey) at various concentrations (0.78-200 μM). Control cells were given fresh media. After 48 hours cell viability was assessed using CellTiter 96® AQeous Non-Radioactive Cell Proliferation Assays (Promega Corporation, Madison Wisconsin). Plates were read after 4 hours with a GloMax® Discover plate reader (Promega Corporation, Madison Wisconsin). The cytotoxicity assays were performed at least twice, each time with eight replicates per condition.
(§4) Statistical analyses were performed with GraphPad Prism software (version 10.4.1). Effective concentrations that inhibited 50% of cells (EC50, log agonist versus response) were estimated with nonlinear fit curves. Absorbance values for cytotoxity assays and relative densities for Western blot assays were compared using Kruskal-Wallis analyses of variance with Dunn's correction for multiple comparisons. For flow cytometric analyses, two-way analyses of variance with Tukey's correction for multiple comparisons were used.

SCC-15 cells = assay: Cytotoxicity assay (CellTiter 96 AQeous); assay type: cell-based; conditions: Homo sapiens, 48 hours
Method: as §3, §4

A549 cells = assay: Cytotoxicity assay (CellTiter 96 AQeous); assay type: cell-based; conditions: Homo sapiens, 48 hours
Method: as §3, §4

MCF7 cells [5] = assay: Cytotoxicity assay (CellTiter 96 AQeous); assay type: cell-based; conditions: Homo sapiens, 48 hours
Method: as §3, §4

UM-SCC-69 cells = assay: Cytotoxicity assay (CellTiter 96 AQeous); assay type: cell-based; conditions: Homo sapiens, 48 hours
Method: as §3, §4

Rosi cells [6] = assay: Cytotoxicity assay (CellTiter 96 AQeous); assay type: cell-based; conditions: Homo sapiens, 48 hours
Method: as §3, §4

UM-SCC-14a cells = assay: Cytotoxicity assay (CellTiter 96 AQeous); assay type: cell-based; conditions: Homo sapiens, UMSCC14A, 48 hours
Method: as §3, §4

UM-SCC-12 cells = assay: Cytotoxicity assay (CellTiter 96 AQeous); assay type: cell-based; conditions: Homo sapiens, 48 hours
Method: as §3, §4

UM-SCC-49 cells = assay: Cytotoxicity assay (CellTiter 96 AQeous); assay type: cell-based; conditions: Homo sapiens, 48 hours
Method: as §3, §4

MDA-MB-231 cells [7] = assay: Cytotoxicity assay (CellTiter 96 AQeous); assay type: cell-based; conditions: Homo sapiens, 48 hours
Method: as §3, §4

COC(=O)c1c(NC(=O)c2ccccc2C)sc(C(=O)Nc2cccc(C)c2)c1C [Compound 2, methyl 4-methyl-2-[(2-methylbenzoyl)amino]-5-[[(3-methylphenyl)amino]carbonyl]-3-thiophenecarboxylate]
EC50 (MDA-MB-231 cells [1]; Homo sapiens, read-out: Log [μM] EC50 (converted)): 3.89 µM | concentration at which survival was significantly inhibited (MDA-MB-231 cells [1]): 25 µM | RIPK1 phosphorylation at serine 161 (MCF7 cells [2]): did not statistically increase | phosphorylation of ACC1 (MCF7 cells [2]): increased phosphorylation of ACC1 | phosphorylation of AMPK (MCF7 cells [2]): Increased phosphorylation of AMPK was not found | phosphorylation of MLKL (MCF7 cells [2]): Increased phosphorylation of MLKL was noted | cytosolic PP2Ab expression (MCF7 cells [2]; after 4-6 hours of exposure): decreased cytosolic PP2Ab expression | PP2Ac methylation (MCF7 cells [2]; lysates after 2, 4, 6, 8 and 12 hours): did not significantly decrease methylation of PP2Ac | RIPK1 phosphorylation at serine 161 (Rosi cells [3]): increased RIPK1 phosphorylation at serine 161 | phosphorylation of ACC1 (Rosi cells [3]): increased phosphorylation of ACC1 | phosphorylation of AMPK (Rosi cells [3]): Increased phosphorylation of AMPK was not found | phosphorylation of MLKL (Rosi cells [3]): Increased phosphorylation of MLKL was noted | PP2Ac methylation (Rosi cells [3]; Compound 2 significant at 6 hours): decreased PP2Ac methylation | cytosolic PP2Ab expression (Rosi cells [3]; after 4-6 hours of exposure): decreased cytosolic PP2Ab expression | RIPK1 phosphorylation at serine 161 (MDA-MB-231 cells [4]): increased RIPK1 phosphorylation at serine 161 | cytosolic PP2Ab expression (MDA-MB-231 cells [4]): did not change cytosolic expression PP2Ab | phosphorylation of AMPK (MDA-MB-231 cells [4]): Increased phosphorylation of AMPK was not found | phosphorylation of MLKL (MDA-MB-231 cells [4]): not in MDA-MB-231 cells | PP2Ac methylation (MDA-MB-231 cells [4]; Compound 2 significant at 4 hours): decreased PP2Ac methylation | EC50 (501-MEL cells): 60.6 µM | EC50 (SCC-15 cells): 4.26 µM | EC50 (A549 cells): 41.4 µM | EC50 (MCF7 cells [5]): 2.24 µM | EC50 (UM-SCC-69 cells): 2.49 µM | EC50 (Rosi cells [6]): 3.16 µM | EC50 (UM-SCC-14a cells): 26.4 µM | EC50 (UM-SCC-12 cells): 209 µM | EC50 (UM-SCC-49 cells): 4.95 µM | EC50 (MDA-MB-231 cells [7]): 3.89 µM
